Measurements taken from PubChem BioAssay (NCI).
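The compound was tested at five concentrations on cells cultured in 96-well plates, with a 48-hour exposure period. The concentration for full growth arrest is given as TGI.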

Columns and labels:
Assay in all cases: NCI tumour cell line growth inhibition, 48 h
COLO 205 colon = test system: COLO 205 colon
DMS 114 small cell lung = test system: DMS 114 small cell lung
HCC-2998 colon = test system: HCC-2998 colon
IGROV1 ovarian = test system: IGROV1 ovarian
K-562 leukemia = test system: K-562 leukemia
KM20L2 colon = test system: KM20L2 colon
LXFL 529 NSCLC = test system: LXFL 529 NSCLC
M19-MEL melanoma = test system: M19-MEL melanoma
SF-268 CNS = test system: SF-268 CNS
TK-10 renal = test system: TK-10 renal
HOP-18 NSCLC = test system: HOP-18 NSCLC
SNB-78 CNS = test system: SNB-78 CNS

SMILES	TGI (COLO 205 colon)	TGI (DMS 114 small cell lung)	TGI (HCC-2998 colon)	TGI (IGROV1 ovarian)	TGI (K-562 leukemia)	TGI (KM20L2 colon)	TGI (LXFL 529 NSCLC)	TGI (M19-MEL melanoma)	TGI (SF-268 CNS)	TGI (TK-10 renal)	TGI (HOP-18 NSCLC)	TGI (SNB-78 CNS)
O=C1C2=C(c3ccccc31)C(c1ccccc1Cl)N1C(=O)CSC1=N2 (stereo not drawn)	> 100 µM	> 100 µM	> 100 µM	> 100 µM	> 100 µM	> 100 µM	> 100 µM	> 100 µM	> 100 µM	> 100 µM		
COC1=C(OC)CCC(/C(C#N)=C/c2ccc(OC)c(OC)c2)=C1	> 100 µM	> 100 µM	> 100 µM	> 100 µM	> 100 µM	> 100 µM	> 100 µM	> 100 µM	> 100 µM	98 µM	> 100 µM	> 100 µM
O=c1nc2cc(-c3ccccc3)[nH]c2nn1-c1c(Cl)cc(Cl)cc1Cl	32.9 µM	> 100 µM	32 µM	> 100 µM	> 100 µM	57.5 µM	> 100 µM	63.2 µM	> 100 µM	69.4 µM	44.9 µM	> 100 µM
CCOC(=O)C(C)(C)Oc1ccc2c(-c3ccc(Cl)cc3)cc(=O)oc2c1	> 100 µM	> 100 µM	> 100 µM	> 100 µM	> 100 µM	> 100 µM	> 100 µM	> 100 µM	> 100 µM	> 100 µM		
CCC1(OC(C)=O)C(=O)OCc2c1cc1n(c2=O)Cc2cc3ccccc3nc2-1 (stereo not drawn)	> 100 µM	11.9 µM	> 100 µM	> 100 µM	> 100 µM	> 100 µM	> 100 µM	> 100 µM	> 100 µM	> 100 µM	> 100 µM	> 100 µM
COc1ccc(NC(=O)C(=O)C2NC(=S)NC2=O)c(OC)c1 (stereo not drawn)	> 100 µM	> 100 µM	> 100 µM	> 100 µM	> 100 µM	> 100 µM	> 100 µM	> 100 µM	> 100 µM	> 100 µM		> 100 µM
O=[N+]([O-])c1ccccc1C1N2CCCCC2[C@@H]2c3[nH]c4ccccc4c3CCN12 (stereo partly drawn)	25.8 µM	14.7 µM		40.9 µM	14 µM	25.1 µM	22.8 µM	18.5 µM	27.4 µM	38.4 µM	> 100 µM	32.2 µM
CC(=O)Nc1ccc(-c2nnc(SCC(=O)Nc3ccc(C)cc3)o2)cc1	31.6 µM	28.2 µM		28.6 µM	> 100 µM	36.5 µM	30.5 µM	32.9 µM	44.2 µM	53.6 µM	31.3 µM	34.7 µM
C/C(=N\Nc1ccc([N+](=O)[O-])cc1)C(=O)N(C)Nc1ccccc1	> 100 µM	> 100 µM	> 100 µM	> 100 µM	> 100 µM	> 100 µM	> 100 µM	> 100 µM		> 100 µM	> 100 µM	
Cc1cc(C)nc(NS(=O)(=O)c2ccc(NC(=O)c3cccc4cc5ccccc5nc34)cc2)n1	> 100 µM			> 100 µM	> 100 µM	> 100 µM	> 100 µM	79 µM	> 100 µM	> 100 µM		72.7 µM
Cn1c(O)c(C(=O)Nc2ccc([N+](=O)[O-])cc2)c(=O)n(C)c1=S	19.9 µM	4.81 µM	7.23 µM	10.1 µM	> 50.9 µM	20.4 µM	> 50.1 µM	> 45.3 µM	10.7 µM	10.7 µM	6.85 µM	
COc1ccc(C2S/C(=C\c3ccc(OC)cc3OC)C(=O)N2NC(=O)Cc2ccccc2)cc1 (stereo not drawn)	> 100 µM	> 100 µM		> 100 µM	> 100 µM		> 100 µM	> 100 µM	> 100 µM	> 100 µM	> 100 µM	
CCN(CC)CCCNC(=O)Cc1ccccc1Nc1c(Cl)cccc1Cl	28.3 µM	27.6 µM	11.5 µM	36.5 µM	21.6 µM	12.4 µM	21.3 µM	17.4 µM	31.2 µM	26.8 µM		32.8 µM
Cc1ccc(Nc2ccc(Nc3ccc(C)cc3)c3c2C(=O)c2c(O)ccc(O)c2C3=O)cc1	> 100 µM	> 100 µM	> 100 µM	> 100 µM	> 100 µM		> 100 µM	> 100 µM	> 100 µM	> 100 µM		> 100 µM
CC[C@@H]1OC2(C)CC(S(=O)(=O)c3ccccc3)CC1O2 (stereo partly drawn)	> 100 µM	> 100 µM	> 100 µM	> 100 µM	> 100 µM	> 100 µM	> 100 µM	> 100 µM	> 100 µM		> 100 µM	> 100 µM
Fc1ccccc1C1CC(C(c2ccccc2)c2ccccc2)=Nc2ccccc2S1 (stereo not drawn)	27.9 µM	23.6 µM	17.6 µM	28.8 µM	10.6 µM	27.6 µM	15.3 µM		26.1 µM	25.2 µM	31.4 µM	
COc1ccc(O)c2c1C(=O)CCCC2=O	> 100 µM	> 100 µM	> 100 µM	> 100 µM	> 100 µM	> 100 µM	> 100 µM	> 100 µM	> 100 µM	> 100 µM		> 100 µM
COc1ccc2c(c1)CC[C@@H]1C2CC[C@]2(C)C(=O)NC(=O)CC12 (stereo partly drawn)	> 100 µM		> 100 µM	> 100 µM	> 100 µM	> 100 µM	> 100 µM	> 100 µM	> 100 µM	> 100 µM	> 100 µM	> 100 µM
O=[N+]([O-])c1ccc(Cl)c(C2SCc3nc4ccccc4n32)c1 (stereo not drawn)	> 100 µM	> 100 µM	> 100 µM	> 100 µM	> 100 µM		> 100 µM	> 100 µM	> 100 µM	> 100 µM	67.7 µM	> 100 µM
